Test results published in PMC4301837, “Aldosterone synthase inhibition: cardiorenal protection in animal disease models and translation of hormonal effects to human subjects” (Journal of Translational Medicine, 2014).
Read-outs that look alike come from different tables or passages of the source.

What was measured:
[1] = system: dTG rats overexpressing human renin and angiotensinogen; assay type: in vivo; conditions: dTG rats, LCI699 3–100 mg/kg/day
Excerpt: To determine the effects of inhibiting aldosterone synthase in an experimental model of rapidly progressive RAS-driven hypertension with cardiac and renal damage, we used dTG rats overexpressing human renin and angiotensinogen, as previously described [22]. dTG rats are characterized by high circulating levels of human renin, Ang II and aldosterone, left ventricular (LV) hypertrophy, and rapidly progressive cardiac and renal disease with moribundity or death occurring on average by 2 months of age.
dTG rats were bred from their respective single transgenic lines at Novartis under a license agreement with the Max-Delbruck-Centrum fur Molekulare Medizin (Berlin-Buch, Germany). Age-matched male S-D rats were bred by Taconic Farms (Germantown, NY, USA). This background strain for the dTG rats served as healthy controls. Rats were maintained on a 12-h light/dark cycle at 72°F with 55% relative humidity and were provided normal food (Harlan Teklad 8604) and water ad libitum.
In studies in young dTG rats, water consumption was measured and urine collected for renal biomarkers 24 hours before the terminal experiment. On the final experimental day, rats were anesthetized to allow for echocardiographic examination. A carotid artery was then cannulated for direct recording of arterial pressure and heart rate. Blood (aortic puncture) and organ/tissue samples were collected, and the animal was euthanized.
Echocardiographic images were acquired with a Vivid 7 (GE Healthcare, Milwaukee, WI, USA) instrument and an M12L (GE Healthcare) linear probe (14 MHz) with appropriate frame rates (M-mode: 164.8 frames per second (fps); 2D mode: 210.3 fps; TDI mode: 365.5 fps). Images were analyzed offline with EchoPAC™ Dimension software (GE Healthcare).
Hearts were perfused in situ with KCl (50 mmol/L), which quickly arrested the heart and depolarized the myocytes allowing for a more standardized and reproducible assessment of myocardial cell size. Hearts were fixed in 10% formalin. Myocyte cross-sectional area was assessed on sections cut at the mid-papillary level and stained with 1:100 FITC wheat-germ agglutinin (Vector Lab, catalog # FL-1021). Digital images were taken from the LV free wall, interventricular septum and papillary muscle regions. Image analysis of round cells (~500 per heart) on cross-section was performed to estimate mean cell size.
Serum and urinary electrolytes (Na^+, K^+, and Cl^−) and creatinine and blood urea nitrogen (BUN) were assessed with a Hitachi 917 chemistry analyzer. Urinary albumin concentration was measured with a commercially available enzyme immunoassay (EIA) kit (catalog # A05102; SPI-BIO, Montigny Le Bretonneux, France) according to the manufacturer’s instructions.

[2] = system: healthy male volunteers; assay: Human safety and tolerability; assay type: in vivo
Description: All adverse events were recorded during the study period. In addition, vital signs and body weight were measured daily, while blood hematologic and chemistry profiles, urinalysis, physical condition and 12-lead electrocardiograms were monitored regularly throughout the study.
An analysis of variance (ANOVA) with treatment as the classification factor was performed on orthostatic changes (standing-supine) in pre-dose systolic blood pressure, diastolic blood pressure, and heart rate measurements for each of Days 1, 7, and 14 separately.
An ANCOVA with treatment as the classification factor and baseline as the covariate was performed on change from baseline (Day 1 pre-dose) to Day 7 and Day 14 for pre-dose supine and standing systolic blood pressure (SBP), diastolic blood pressure (DBP), and heart rate and for orthostatic changes (standing–supine).

[3] = molecular target: 11β-hydroxylase (CYP11B1), rat adrenal homogenate (Rattus norvegicus, UniProt P15393); assay: biochemical
Description: Rat adrenal homogenates were prepared from the adrenal glands of male Sprague-Dawley (S-D) rats as described previously [21]. Monkey CYB11B2 and CYB11B1 homogenates were prepared from the adrenal glands of female cynomolgous monkeys. Monkey adrenal gland tissue was minced and homogenized on ice in a glass tissue grinder in 1 mL of ice-cold homogenization buffer per 100 mg tissue (adding 2.7 mmol/L CaCl2 and one ethylenediaminetetraacetic acid (EDTA)-free protease inhibitor tablet per 50 mL buffer) [20]. The homogenized material was centrifuged at 450 g for 5 min at 4°C, and the supernatant brought to a final glycerol concentration of 5%, flash-frozen in liquid nitrogen, and stored at −80°C until analysis. Aldosterone, cortisol and corticosterone concentrations were quantified using 96-well plate assays (see Additional file 1).
The rat and monkey assays were conducted similarly, using 11-DOC as substrate.
(§1) Half-maximal inhibitory concentration (IC50) values were derived using a non-linear least-squares curve-fitting program (XLfit; ID Business Solutions Inc., Bridgewater, NJ, USA).
Aldosterone concentration was measured using 96-well plates. […] The amount of aldosterone, cortisol or corticosterone was calculated by comparison with a standard curve.

[4] = system: ACTH-stimulated aldosterone, cortisol and precursors; assay: Human ACTH (cortisol) stimulation test, multiple-dose phase; assay type: in vivo
Description: (§2) The multiple-dose phase involved four cohorts, each of 18 subjects. […] Subjects were placed on a controlled sodium restricted diet from the day before dosing until 72 h post-dose and were housed at the study center for this period. Until Day 7, the diet was ~50–60 mEq Na^+/~50–60 mEq K^+. On the morning of Day 8, potassium in the diet was increased to ~100 mEq. Based on urinary electrolyte values obtained from placebo subjects on Day 7 and Day 14 respectively, the actual diet was ~95 ± 63 mEq Na^+/46 ± 12 mEq K^+ for the first week and ~86 ± 42 mEq Na^+/69 ± 25 mEq K^+ for the second week.
Pharmacodynamic assessments included the measurement of aldosterone, plasma renin activity (PRA), cortisol and 11-deoxycortisol during both phases of the study. In addition, ACTH and 11-DOC were measured during the multiple-dose phase. During the single-dose phase, blood samples for pharmacodynamic assessments were collected pre-dose and at 1, 2, 4, 8, 12 and 24 h post-dose. During the multiple-dose phase, samples were collected pre-dose and at 1, 2, 4, 8 and 12 h post-dose on Days −1 (baseline), 1, 7, 8 and 14, as well as pre-dose on Days 2 and 9, and at 24, 48 and 72 h after the final dose (i.e., on Days 15, 16 and 17). In addition, subjects underwent a cortisol stimulation test on Days –2, 6 and 13; An ACTH analog was injected 2 h post-dose and blood samples were collected prior to, and at 30 and 60 min after, the ACTH injection. Aldosterone and PRA levels were measured by radioimmunoassay and cortisol and 11-deoxycortisol levels by LC-MS/MS (see Additional file 1).
All subjects with evaluable pharmacodynamic measurements were included in the analysis, and data from the two study phases were analyzed separately. An analysis of covariance (ANCOVA) with treatment as factor and baseline value as covariate was performed to evaluate changes from baseline in pharmacodynamic parameters at each time point.
Aldosterone levels were measured by radioimmunoasssay with 100 μl of EDTA plasma or 500 μl of urine using the DSL-8600 ACTIVE® Aldosterone Coated-Tube radioimmunoassay kit from Diagnostic Systems Laboratories, Inc. (LLOQ was 69 pmol/l [25.0 pg/ml] for plasma and 2 nmol/l [0.75 ng/ml] for urine).
Cortisol, 11-deoxycortisol and 11-deoxycorticosterone levels were measured by LC/MS/MS of 250 μL of EDTA plasma or 500 μL urine (LLOQ was 13.79 nmol/L [5.00 ng/mL] for cortisol and 2.89 nmol/L [1.00 ng/mL] for 11-deoxycortisol and 11-deoxycorticosterone in plasma and 2.76 nmol/L [1.00 ng/mL] for cortisol in urine). For plasma cortisol, based on 9 standards ranging from 5–300ng/ml (>70 replicates of each) run at the time of sample analysis, the coefficient of variation (CV) and were 2.14–5.32% and 97.6–104%, respectively. For urine cortisol, based on 7 standards ranging from 1–100ng/ml (22 replicates of each) run at the time of sample analysis, CV and accuracy were 1.55–4.22% and 97.0–101.6%, respectively. For plasma 11-deoxycortisol, based on 9 standards ranging from 1–300ng/ml (>50 replicates of each) run at the time of sample analysis, CV and accuracy were 3.69–8.22% and 91.33–108%, respectively. For 11-deoxycorticosterone, based on 8 standards ranging from 0.05–1 ng/ml (19–20 replicates of each) run during assay validation, CV of the plasma assay was 2.38–8.71% and bias was -2.4–4.0%.

[5] = in vitro; conditions: human, plasma
[6] = system: dTG rats overexpressing human renin and angiotensinogen; assay: Survival study in young dTG rats; assay type: in vivo, rat
[7] = system: ACTH-stimulated plasma aldosterone and cortisol
Excerpt: Male cynomolgus monkeys (Macaca fascicularis) were selected for their cooperation and ability to sit comfortably in chairs and were conditioned to remain in the chairs for extended periods before the studies began. On the day of the experiment, monkeys were removed from their home cages with a pole/collar device (Primate Products, Inc., Woodside, CA, USA), secured in their restraining chairs, and transported to the quiet study room. The monkeys remained in the chair for the duration of the experiment (up to 10 h), during which time an enrichment and feeding regimen was followed.
Six monkeys (4.9–8.8 kg) were selected and were divided into two groups of three animals. Experiments were not initiated until after at least 2 weeks of recovery from the catheter/vascular access port (VAP) surgeries. Thirty minutes before the start of the experiment, a Huber needle was inserted transdermally into the VAP for the collection of blood samples and injection of ACTH. Between samplings, catheters/VAPs were flushed with saline and kept patent with 10 U/mL heparin.
Blood samples (0.3 mL in 15 U/mL heparin) for baseline pharmacokinetic and pharmacodynamic assessments were collected at 0.5 h, 0.25 h and immediately before dosing. […] Blood samples were collected at 0.125, 0.25, 0.5, 0.75 and 1 h after ACTH injection to assess the time course of plasma aldosterone and cortisol stimulation. […] Between the 8 h and 23.5 h collections, the Huber needles were removed and the monkeys were returned to their home cages. All instrumentation was removed after the last sample at 24 h.
Data and statistical analyses were conducted with Microsoft Excel (Version 2007, Microsoft, Redmond, WA, USA). All differences were considered statistically significant at a two-sided P value ≤ 0.05.
Blood samples were centrifuged at 20,000g for 20 min at 4°C to separate out plasma, which was aliquoted and frozen at −70°C until required for analysis. Plasma aldosterone and cortisol concentrations from animal studies were measured using commercially available solid-phase ^125I radioimmunoassay kits (Coat-A-Count Aldosterone TKAL1; Coat-A-Count Cortisol TKCO1; Siemens Healthcare Diagnostic Products).

[8] = molecular target: recombinant rat aldosterone synthase (CYP11B2) (Rattus norvegicus, UniProt P30099); assay: biochemical
Description: (§3) Recombinant rat CYP11B2 and CYP11B1 enzymes were prepared similarly. All cell lines were maintained in Dulbecco’s modified Eagle’s medium supplemented with 10% fetal bovine serum, 0.5× antibiotic, 800 μg/mL geneticin and 250 μg/mL hygromycin (double-selection medium; all from Invitrogen, Carlsbad, CA, USA).
(§4) Human CYP11B2 and CYP11B1 assays were performed as described previously [20]. The rat and monkey assays were conducted similarly, using 11-DOC as substrate.
as §1
(§5) Aldosterone concentration was measured using 96-well plates. Each test sample was incubated with 0.02 µCi D-[1,2,6,7-^3H(N)]aldosterone (PerkinElmer, Boston, MA, USA) and 0.2 µg anti-aldosterone antibody (ATCC, Manassas, VA, USA) in phosphate-buffered saline containing 0.1% Triton X-100, 0.1% bovine serum albumin, and 12% glycerol (in a total volume of 200 µL) at room temperature for 1 h. Anti-mouse polyvinyltoluene (PVT) scintillation proximity assay (SPA) beads (50 µL: GE Health Sciences, Piscataway, NJ, USA) were then added to each well and incubated overnight at room temperature prior to counting in a Microbeta plate counter (PerkinElmer). […] The amount of aldosterone, cortisol or corticosterone was calculated by comparison with a standard curve.

[9] = human, 0.5–3 mg once daily oral
[10] = clinical; conditions: male, human, plasma; for half-life: t½
Description: Healthy male volunteers, 18–45 years of age and with a body mass index of 18–28 kg/m^2 were eligible for this study. Subjects had to be non-smokers with normal hepatic and renal function for inclusion. […] All subjects provided informed written consent before participating in any study procedures. The study was conducted at two centers in the Netherlands and one in Germany and was approved by the Independent Ethics Committee and/or Institutional Review Board for each study center (Stichting Beoordeling Ethiek Biomedisch Onderzoek, Assen, Netherlands; Ethics Committee of the Land, Berlin, Germany) and was conducted in accordance with Good Clinical Practice and the ethical principles of the Declaration of Helsinki.
This was a randomized, double-blind, placebo-controlled, interwoven single- and multiple-ascending-dose study. In the single-dose phase, five cohorts of eight subjects each were enrolled. […] Assessments were made throughout the treatment period, and at an end of study assessment 7 days post-dose.
as §2
Blood samples for pharmacokinetic assessment were obtained pre-dose and at regular intervals up to 72 h post-dose in the single-dose phase of the study. In the multiple-dose phase, blood samples were taken on Day 1 and Day 14 at regular intervals up to 36 and 72 h post-dose, respectively, and pre-dose on Days 3, 4, 7 and 11. Blood samples (2 or 4 mL) were collected into an EDTA containing tube, plasma extracted and samples frozen at –70°C until analysis.
All subjects with quantifiable pharmacokinetic measurements were included in the pharmacokinetic data analysis. Pharmacokinetic parameters were analyzed separately for the single- and multiple-dose phases and were determined using non-compartmental analyses.

[11] = molecular target: recombinant human 11β-hydroxylase (CYP11B1) (Homo sapiens, UniProt P15538); conditions: Lineweaver–Burk plots; at higher concentrations
Description: as §3, §4, §1, §5

[12] = in vivo; conditions: male, Sprague-Dawley, rat, plasma, po
Description: All animal procedures were conducted in accordance with an approved Novartis Animal Care and Use Committee protocol and the Guide for the Care and Use of Laboratory Animals as described previously [21]. Male S-D rats (~500 g) were purchased from Taconic Farms (Germantown, NY, USA) and acclimatized in the Novartis vivarium (12 h light/dark cycle; 72°F; 55% relative humidity) for at least 7 days before being used in experiments. Rats were provided normal chow (Harlan Teklad 8604) and water ad libitum except for a partial fast before and during an experiment.
Both rats and monkeys were surgically instrumented with chronically indwelling femoral venous and arterial catheters to allow intravenous administration of substances and repeated blood sampling.
All pharmacokinetic parameters were derived from concentration–time data by non-compartmental analyses and were calculated using WinNonlin (Enterprise, Version 5.2; Pharsight Corporation, Palo Alto, CA, USA).

[13] = system: dTG rats with pre-established cardiorenal disease; assay: Survival study in older, enalapril-pre-treated dTG rats with established cardiorenal disease; assay type: in vivo, rat; conditions: older dTG rats
Description: In order to study the effects of aldosterone inhibition on survival in older dTG rats with established cardiorenal disease, we modified the model by treating male dTG rats during their developmental stage (3–8 weeks of age) with the angiotensin-converting enzyme (ACE) inhibitor enalapril.
In experiments with older dTG rats (treated with enalapril for 5 weeks), urine collections and echocardiographic examinations were conducted as above but systolic arterial pressure was estimated in conscious rats by tail plethysmography (Model# 56-1, IITC Life Science Inc., Woodland Hills, CA, USA) using appropriate tail cuff sensors (B63), and restrainer (size 80), at a constant chamber temperature of 30°C.
In the survival studies, dTG rats were euthanized if they became moribund. Moribundity was defined as a decrease in body weight of ≥ 20% from “baseline” or two consecutive days of observable hematuria. The study endpoint was the age of the animal at death or at moribundity requiring euthanization.

[14] = oral, single-dose phase, doses up to 200 mg

Sequence of recombinant rat aldosterone synthase (CYP11B2) (P30099 35-510): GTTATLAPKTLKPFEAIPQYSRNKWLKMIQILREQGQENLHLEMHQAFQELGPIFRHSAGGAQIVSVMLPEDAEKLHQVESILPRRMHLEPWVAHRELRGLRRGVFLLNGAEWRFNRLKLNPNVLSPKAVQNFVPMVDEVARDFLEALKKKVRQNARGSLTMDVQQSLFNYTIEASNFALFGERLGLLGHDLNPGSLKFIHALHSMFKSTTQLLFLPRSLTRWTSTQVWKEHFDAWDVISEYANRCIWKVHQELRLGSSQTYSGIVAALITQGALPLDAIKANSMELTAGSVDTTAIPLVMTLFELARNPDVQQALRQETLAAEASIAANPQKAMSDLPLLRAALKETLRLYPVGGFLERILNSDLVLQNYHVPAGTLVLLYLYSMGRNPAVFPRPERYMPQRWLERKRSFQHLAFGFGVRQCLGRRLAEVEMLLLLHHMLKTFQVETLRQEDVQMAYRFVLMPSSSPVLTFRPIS
Sequence of 11β-hydroxylase (CYP11B1), rat adrenal homogenate (P15393 25-499): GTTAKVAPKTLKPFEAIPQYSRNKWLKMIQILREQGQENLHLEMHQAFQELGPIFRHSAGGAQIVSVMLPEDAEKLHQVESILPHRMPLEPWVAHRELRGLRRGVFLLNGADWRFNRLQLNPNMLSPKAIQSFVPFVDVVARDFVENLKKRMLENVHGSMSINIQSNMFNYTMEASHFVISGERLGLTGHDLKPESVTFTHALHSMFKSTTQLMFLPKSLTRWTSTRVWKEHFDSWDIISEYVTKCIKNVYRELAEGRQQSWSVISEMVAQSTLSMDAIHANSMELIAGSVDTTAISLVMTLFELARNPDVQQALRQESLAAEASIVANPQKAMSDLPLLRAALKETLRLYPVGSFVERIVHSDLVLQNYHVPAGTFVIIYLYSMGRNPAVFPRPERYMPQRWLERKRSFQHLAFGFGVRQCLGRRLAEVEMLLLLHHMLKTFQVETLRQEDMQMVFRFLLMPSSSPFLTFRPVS
Sequence of recombinant human 11β-hydroxylase (CYP11B1) (P15538 25-503): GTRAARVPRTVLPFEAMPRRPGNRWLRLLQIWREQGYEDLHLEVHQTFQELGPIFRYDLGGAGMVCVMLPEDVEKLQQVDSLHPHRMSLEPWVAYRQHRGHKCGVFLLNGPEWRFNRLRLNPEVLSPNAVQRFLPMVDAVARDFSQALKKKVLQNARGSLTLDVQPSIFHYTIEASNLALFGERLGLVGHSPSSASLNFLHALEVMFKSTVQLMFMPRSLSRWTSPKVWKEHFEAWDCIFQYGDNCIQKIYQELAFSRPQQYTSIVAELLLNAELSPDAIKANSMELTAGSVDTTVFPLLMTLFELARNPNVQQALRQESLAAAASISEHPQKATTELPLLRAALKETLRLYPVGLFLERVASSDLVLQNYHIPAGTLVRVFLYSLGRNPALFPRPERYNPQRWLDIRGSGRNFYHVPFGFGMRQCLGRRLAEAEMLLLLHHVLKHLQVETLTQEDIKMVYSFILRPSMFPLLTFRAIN

## N#Cc1ccc([C@H]2CCc3cncn32)c(F)c1 [LCI699]
[1]
  effect on urinary corticosterone excretion: reduced
[1]; eplerenone 30 mg/kg
  effect on LV fractional shortening: dose-dependently increased
  effect on myocardial cell size: normalized
[1]; eplerenone 30 mg/kg/day
  effect on BUN levels: dose-dependently normalized
  effect on mean arterial pressure: neither LCI699 nor eplerenone normalized arterial pressure
  effect on serum potassium: corrected serum potassium in a dose-dependent manner
  effect on urinary albumin excretion: dose-dependently normalized
  effect on urinary aldosterone excretion: reduced
  effect on urine output: dose-dependently normalized
[1]; eplerenone 30 mg/kg, data not shown
  effect on LV weight: reduced
[1]; data not shown
  effect on water intake: dose-dependently normalized
[2]; LCI699 0.5 mg, multiple-dose phase
  subjects with plasma sodium levels at or below 135 mmol/L: two
[2]; LCI699 3 mg, multiple-dose
  subjects with pre-specified markers of hypoaldosteronism (mild hyponatremia, postural tachycardia, decreased body weight), discontinued: three
[2]; LCI699 3 mg, multiple-dose phase
  subjects with plasma sodium levels at or below 135 mmol/L: four
[2]; healthy subjects, single doses up to 200 mg, multiple doses
  tolerability: well tolerated
[2]; multiple-dose phase, LCI699 10 mg
  adverse events considered severe (abnormal ACTH-stimulation test): only one adverse event
[2]; single or multiple doses
  changes in supine systolic or diastolic blood pressure or heart rate compared with placebo: no consistent changes
[3]
  IC50: 3050 nM
[4]; LCI699 0.5 mg, Day 6
  peak reduction of ACTH-stimulated cortisol levels from baseline: 1.8%
[4]; LCI699 0.5 mg, eplerenone 100 mg
  effect on ACTH-stimulated 11-DOC levels: no significant effect
[4]; LCI699 1 mg, Day 6
  maximal increase in ACTH-stimulated 11-DOC from baseline: 95%
  peak reduction of ACTH-stimulated cortisol levels from baseline: 11%
[4]; LCI699 1 mg, Day 13
  effect on ACTH-stimulated cortisol response: attenuation of the ACTH-stimulated cortisol response
[4]; LCI699 3 mg, Day 6
  maximal increase in ACTH-stimulated 11-DOC from baseline: 407%
  peak increase in ACTH-stimulated 11-deoxycortisol from baseline: 82%
  peak reduction of ACTH-stimulated cortisol levels from baseline: 22%
[4]; LCI699 3 mg, Day 13
  increase in ACTH-stimulated 11-DOC levels: 168%
  peak increase in ACTH-stimulated 11-deoxycortisol from baseline: 114%
[4]; LCI699 10 mg
  time to complete reversal of cortisol suppression after discontinuing: 4 to 9 days
[4]; LCI699 10 mg, Days 6 and 10
  effect on ACTH-stimulated cortisol: further suppressed
[4]; LCI699 0.5–3 mg, Day 6
  peak inhibition of ACTH-stimulated aldosterone levels from baseline (Day −2): 41–64%
[4]; eplerenone 100 mg and lower doses of LCI699 (0.5, 1 mg), Day 6 or Day 13
  effect on cortisol precursors (ACTH-stimulated): no significant effect
[5]
  fraction unbound: 0.734
[6]; young dTG rats without established cardiorenal disease, P < 0.01
  doses at which survival was significantly prolonged: ≥ 10 mg/kg/day
[6]; young dTG rats, dose–median survival curves
  maximum median survival time: 9.5 weeks
[7]; Ang-II- and ACTH-stimulation models in rats and monkeys
  maximal inhibition of aldosterone production at the upper dose: 80–90%
[7]; monkey, 150 μg/kg oral, 3 h prior to ACTH
  decrease in ACTH-stimulated plasma aldosterone response compared with vehicle control: ~90%
[7]; monkey, 5–150 μg/kg oral
  inhibition of ACTH-stimulated cortisol synthesis: No significant inhibition
  recovery of plasma aldosterone levels: returned to baseline 24 h after dosing
[8]
  IC50: 160 ± 9 nM
[9]
  Tmax: 1.00 to 1.25 h
[10]; [14]
  Tmax: ~1 h
  half-life: ~4 h
[10]; oral, after both single and multiple doses
  half-life: ~4 h
[10]; po, 0.5–3 mg once daily oral
  Tmax: ~1 h
[11]
  mode of inhibition of 11β-hydroxylase: reversible competitive inhibitor
[12]
  half-life: 2 to 5 h
[13]; 30 mg/kg/day in drinking water from 24 weeks of age, P = 0.07
  prolongation of median survival: 23 weeks
[13]; LCI699 30 mg/kg/day, n = 7
  treated rats that died suddenly: two of the seven
